Assays:
Lipopolysaccharide (LPS) [1] = experiment: Displacement of BODIPY-TR cadaverine from Escherichia coli O111:B4 LPS measured for 100 sec by spectrofluorometry
Lipopolysaccharide (LPS) [2] = experiment: Displacement of BODIPY-TR cadaverine from Escherichia coli O111:B4 LPS at 10 uM measured for 100 sec by spectrofluorometry relative to control

For H-LWKKIYRKWKRW-NH2, the Activity (Lipopolysaccharide (LPS) [1]) was “Dose-dependent effect” and the Activity (Lipopolysaccharide (LPS) [2]) was 75%.
